Results from ChEMBL document CHEMBL5055685, “Discovery of the First Potent IDO1/IDO2 Dual Inhibitors: A Promising Strategy for Cancer Immunotherapy” (J Med Chem, 2021).
Calls of active or inactive are those of the source. No cut-off for these calls is given here.

How the values were obtained:
[1] = target: Dual specificity protein kinase CLK3 (Homo sapiens) (UniProt P49761); assay: Inhibition of CLK3 (unknown origin) at 1 uM
[2] = target: Serine/threonine-protein kinase WNK3 (Homo sapiens) (UniProt Q9BYP7); assay: Inhibition of WNK3 (unknown origin) at 1 uM
[3] = target: Mitogen-activated protein kinase 3 (Homo sapiens) (UniProt P27361); assay: Inhibition of ERK1 (unknown origin) at 1 uM
[4] = target: Serine/threonine-protein kinase PLK4 (Homo sapiens) (UniProt O00444); assay: Inhibition of PLK4 (unknown origin) at 1 uM
[5] = target: Cytoplasmic tyrosine-protein kinase BMX (Homo sapiens) (UniProt P51813); assay: Inhibition of BMX (unknown origin) at 1 uM
[6] = target: Protein kinase C iota type (Homo sapiens) (UniProt P41743); assay: Inhibition of PKCiota (unknown origin)at 1 uM
[7] = target: Dual specificity tyrosine-phosphorylation-regulated kinase 2 (Homo sapiens) (UniProt Q92630); assay: Inhibition of DYRK2 (unknown origin) at 1 uM
[8] = target: Dual specificity mitogen-activated protein kinase kinase 3 (Homo sapiens) (UniProt P46734); assay: Inhibition of MEK3 (unknown origin) at 1 uM
Mus musculus = assay: Toxicity in BALB/c mouse implanted with mouse CT26 cells assessed as adverse effect at 50 mg/kg, ip bid for 28 days; format: organism-based; conditions: in vivo, 672 h, time 28 day
[9] = target: Cyclin-Y/Cyclin-dependent kinase 16 (Homo sapiens) (UniProt Q00536+Q8ND76); assay: Inhibition of CDK16/cyclin-Y (unknown origin) at 1 uM; format: protein-complex assay
[10] = target: T1, Indoleamine 2,3-dioxygenase 2 (Homo sapiens, UniProt Q6ZQW0); assay: Inhibition of IDO2 (unknown origin) assessed as reduction in kynurenine formation using L-tryptophan as substrate by methylene blue reagent based assay
T1 sequence (Q6ZQW0 whole entry): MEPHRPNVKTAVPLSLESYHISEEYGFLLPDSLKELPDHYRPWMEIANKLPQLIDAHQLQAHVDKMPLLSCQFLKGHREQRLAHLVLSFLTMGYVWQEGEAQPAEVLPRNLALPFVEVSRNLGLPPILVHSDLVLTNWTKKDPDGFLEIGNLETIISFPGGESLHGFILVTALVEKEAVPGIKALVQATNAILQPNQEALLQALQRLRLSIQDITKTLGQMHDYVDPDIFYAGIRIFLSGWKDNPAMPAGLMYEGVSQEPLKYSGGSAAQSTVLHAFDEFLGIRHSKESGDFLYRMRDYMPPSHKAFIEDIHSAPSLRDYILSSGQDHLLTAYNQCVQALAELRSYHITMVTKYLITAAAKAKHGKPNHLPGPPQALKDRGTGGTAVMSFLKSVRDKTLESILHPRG

[11] = Protein binding in ICR mouse plasma by equilibrium dialysis; format: ADME, cell-free; conditions: read-out: PPB (converted)
[12] = target: TGF-beta receptor type-1 (Homo sapiens) (UniProt P36897); assay: Inhibition of ALK5 (unknown origin) at 1 uM
[13] = target: BDNF/NT-3 growth factors receptor (Homo sapiens) (UniProt Q16620); assay: Inhibition of TRKB (unknown origin) at 1 uM
[14] = target: MAP kinase-activated protein kinase 2 (Homo sapiens) (UniProt P49137); assay: Inhibition of MAPKAPK2 (unknown origin) at 1 uM
[15] = target: Ribosomal protein S6 kinase alpha-4 (Homo sapiens) (UniProt O75676); assay: Inhibition of MSK2 (unknown origin) at 1 uM
[16] = target: ALK tyrosine kinase receptor (Homo sapiens) (UniProt Q9UM73); assay: Inhibition of ALK (unknown origin) at 1 uM
HCT-116 [17] = assay: Antitumor immunity in BALB/c mouse xenografted with human HCT-116 cells assessed as early Treg cells in spleen by propidium iodide staining based flow cytometry analysis (reference value: 9.33 %); format: functional
[18] = Apparent permeability across apical to basolateral side in human Caco-2 cells assessed as drug recovery; format: ADME, cell-based; conditions: read-out: Drug recovery
[19] = target: Calcium/calmodulin-dependent protein kinase type 1G (Homo sapiens) (UniProt Q96NX5); assay: Inhibition of CAMK1G (unknown origin) at 1 uM
[20] = target: Dual specificity mitogen-activated protein kinase kinase 1 (Homo sapiens) (UniProt Q02750); assay: Inhibition of MEK1 (unknown origin) at 1 uM
[21] = target: Serine/threonine-protein kinase SIK2 (Homo sapiens) (UniProt Q9H0K1); assay: Inhibition of SIK2 (unknown origin) at 1 uM
[22] = target: Mitogen-activated protein kinase 13 (Homo sapiens) (UniProt O15264); assay: Inhibition of p38delta (unknown origin) at 1 uM
[23] = target: Ephrin type-B receptor 3 (Homo sapiens) (UniProt P54753); assay: Inhibition of EPHB3 (unknown origin) at 1 uM
HCT-116 [24] = assay: Cytotoxicity against human HCT-116 cells assessed as reduction in cell viability by CCK8 assay; format: functional, cell-based
[25] = target: Protein kinase C theta type (Homo sapiens) (UniProt Q04759); assay: Inhibition of PKCtheta (unknown origin) at 1 uM
[26] = target: Muscle, skeletal receptor tyrosine-protein kinase (Homo sapiens) (UniProt O15146); assay: Inhibition of MUSK (unknown origin) at 1 uM
[27] = target: Leukocyte tyrosine kinase receptor (Homo sapiens) (UniProt P29376); assay: Inhibition of TYK1 (unknown origin) at 1 uM
HCT-116 [28] = assay: Antitumor immunity in BALB/c mouse xenografted with human HCT-116 cells assessed as live Treg cells in tumor-draining lymph nodes by propidium iodide staining based flow cytometry analysis (reference value: 70.6 %); format: functional
[29] = target: Vascular endothelial growth factor receptor 2 (Homo sapiens) (UniProt P35968); assay: Inhibition of KDR (unknown origin) at 1 uM
[30] = target: Tyrosine-protein kinase Mer (Homo sapiens) (UniProt Q12866); assay: Inhibition of c-MER (unknown origin) at 1 uM
[31] = target: Serine/threonine-protein kinase Nek7 (Homo sapiens) (UniProt Q8TDX7); assay: Inhibition of NEK7 (unknown origin) at 1 uM
[32] = target: Serine/threonine-protein kinase 26 (Homo sapiens) (UniProt Q9P289); assay: Inhibition of MST4 (unknown origin) at 1 uM
[33] = target: Protein kinase C beta type (Homo sapiens) (UniProt P05771); assay: Inhibition of PKCb1 (unknown origin) at 1 uM
[34] = target: Tyrosine-protein kinase receptor TYRO3 (Homo sapiens) (UniProt Q06418); assay: Inhibition of TYRO3 (unknown origin) at 1 uM
[35] = target: Tyrosine-protein kinase receptor UFO (Homo sapiens) (UniProt P30530); assay: Inhibition of AXL (unknown origin) at 1 uM
[36] = target: Death-associated protein kinase 3 (Homo sapiens) (UniProt O43293); assay: Inhibition of ZIPK (unknown origin) at 1 uM
[37] = target: Casein kinase I isoform delta (Homo sapiens) (UniProt P48730); assay: Inhibition of CK1D (unknown origin) at 1 uM
[38] = Protein binding in human plasma by equilibrium dialysis; format: ADME, cell-free; conditions: read-out: PPB (converted)

Chain of Protein kinase C beta type (Homo sapiens) (P05771 2-671 limits assumed): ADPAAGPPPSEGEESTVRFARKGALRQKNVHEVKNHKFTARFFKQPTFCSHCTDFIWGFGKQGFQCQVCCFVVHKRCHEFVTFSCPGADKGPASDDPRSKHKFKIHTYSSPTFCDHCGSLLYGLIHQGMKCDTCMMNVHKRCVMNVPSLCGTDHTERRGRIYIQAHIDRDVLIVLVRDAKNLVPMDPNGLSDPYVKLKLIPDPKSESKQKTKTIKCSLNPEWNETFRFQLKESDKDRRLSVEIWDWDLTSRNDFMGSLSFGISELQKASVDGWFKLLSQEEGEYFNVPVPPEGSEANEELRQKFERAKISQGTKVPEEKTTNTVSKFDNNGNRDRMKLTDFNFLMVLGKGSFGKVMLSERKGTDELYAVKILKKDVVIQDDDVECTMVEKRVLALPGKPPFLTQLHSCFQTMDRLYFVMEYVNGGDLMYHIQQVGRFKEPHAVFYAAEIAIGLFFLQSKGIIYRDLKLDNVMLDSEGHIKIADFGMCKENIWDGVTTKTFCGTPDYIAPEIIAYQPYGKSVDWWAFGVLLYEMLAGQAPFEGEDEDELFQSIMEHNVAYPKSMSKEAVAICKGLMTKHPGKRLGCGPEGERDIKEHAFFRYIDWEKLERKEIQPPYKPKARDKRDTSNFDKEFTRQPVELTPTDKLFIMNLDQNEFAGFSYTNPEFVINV
Chain of Tyrosine-protein kinase receptor TYRO3 (Homo sapiens) (Q06418 whole entry): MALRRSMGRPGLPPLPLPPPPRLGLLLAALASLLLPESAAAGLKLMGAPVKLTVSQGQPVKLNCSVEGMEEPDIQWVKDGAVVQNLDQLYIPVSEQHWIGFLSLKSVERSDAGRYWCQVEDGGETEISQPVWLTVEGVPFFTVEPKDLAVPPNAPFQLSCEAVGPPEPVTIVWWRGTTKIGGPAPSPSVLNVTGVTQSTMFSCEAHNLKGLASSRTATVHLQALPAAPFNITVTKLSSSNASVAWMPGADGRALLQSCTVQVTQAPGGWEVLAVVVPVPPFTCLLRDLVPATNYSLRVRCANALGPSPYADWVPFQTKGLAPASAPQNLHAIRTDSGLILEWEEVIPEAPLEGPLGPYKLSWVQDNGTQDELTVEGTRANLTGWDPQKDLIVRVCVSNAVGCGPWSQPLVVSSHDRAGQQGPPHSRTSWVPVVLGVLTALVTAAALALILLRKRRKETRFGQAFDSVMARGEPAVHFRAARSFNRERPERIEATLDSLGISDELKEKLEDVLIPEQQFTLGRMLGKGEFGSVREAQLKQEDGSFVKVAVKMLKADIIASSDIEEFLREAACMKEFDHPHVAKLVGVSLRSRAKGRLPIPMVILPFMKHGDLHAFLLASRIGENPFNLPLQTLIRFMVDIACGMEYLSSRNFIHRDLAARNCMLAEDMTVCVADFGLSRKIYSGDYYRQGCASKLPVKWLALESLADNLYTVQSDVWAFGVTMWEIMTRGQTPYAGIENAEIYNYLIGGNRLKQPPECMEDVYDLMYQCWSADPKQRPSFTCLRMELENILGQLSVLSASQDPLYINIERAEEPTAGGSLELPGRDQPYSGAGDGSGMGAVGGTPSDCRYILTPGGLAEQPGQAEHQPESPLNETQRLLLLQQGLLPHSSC
Chain of Vascular endothelial growth factor receptor 2 (Homo sapiens) (P35968 whole entry): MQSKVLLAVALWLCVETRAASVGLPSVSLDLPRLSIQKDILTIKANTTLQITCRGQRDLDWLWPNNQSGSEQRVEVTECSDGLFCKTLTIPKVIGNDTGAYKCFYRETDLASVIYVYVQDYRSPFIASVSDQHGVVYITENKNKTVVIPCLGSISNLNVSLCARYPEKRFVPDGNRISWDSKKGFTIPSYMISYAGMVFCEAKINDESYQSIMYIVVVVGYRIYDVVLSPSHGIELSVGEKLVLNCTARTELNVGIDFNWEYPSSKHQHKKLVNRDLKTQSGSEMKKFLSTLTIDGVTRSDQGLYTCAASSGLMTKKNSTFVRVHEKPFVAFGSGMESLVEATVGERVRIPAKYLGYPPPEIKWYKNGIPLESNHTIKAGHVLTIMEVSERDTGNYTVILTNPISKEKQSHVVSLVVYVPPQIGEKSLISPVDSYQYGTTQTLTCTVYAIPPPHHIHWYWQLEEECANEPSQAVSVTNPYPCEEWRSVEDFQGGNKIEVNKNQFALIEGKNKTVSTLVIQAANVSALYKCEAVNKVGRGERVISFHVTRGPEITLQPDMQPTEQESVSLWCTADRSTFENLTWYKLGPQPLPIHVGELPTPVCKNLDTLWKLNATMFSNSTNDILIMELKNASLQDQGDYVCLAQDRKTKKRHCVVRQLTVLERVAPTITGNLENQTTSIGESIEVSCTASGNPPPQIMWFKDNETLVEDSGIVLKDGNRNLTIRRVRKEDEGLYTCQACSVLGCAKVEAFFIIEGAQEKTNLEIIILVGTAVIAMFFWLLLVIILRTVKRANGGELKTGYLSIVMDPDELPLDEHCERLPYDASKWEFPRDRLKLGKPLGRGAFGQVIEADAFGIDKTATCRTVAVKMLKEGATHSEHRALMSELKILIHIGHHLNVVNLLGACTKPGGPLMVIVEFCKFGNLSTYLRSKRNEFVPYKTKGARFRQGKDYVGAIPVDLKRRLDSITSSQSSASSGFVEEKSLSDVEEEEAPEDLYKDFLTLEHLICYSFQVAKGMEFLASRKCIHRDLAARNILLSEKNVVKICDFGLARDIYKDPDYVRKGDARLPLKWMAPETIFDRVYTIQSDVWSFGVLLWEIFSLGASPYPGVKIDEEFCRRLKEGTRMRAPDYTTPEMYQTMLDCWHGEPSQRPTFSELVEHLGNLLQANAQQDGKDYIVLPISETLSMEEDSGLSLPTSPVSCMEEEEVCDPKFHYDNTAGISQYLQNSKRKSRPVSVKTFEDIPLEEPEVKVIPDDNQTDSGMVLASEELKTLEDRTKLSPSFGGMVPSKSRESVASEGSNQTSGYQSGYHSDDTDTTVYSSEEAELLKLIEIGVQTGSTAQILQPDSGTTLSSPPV
Chain of Dual specificity mitogen-activated protein kinase kinase 1 (Homo sapiens) (Q02750 whole entry): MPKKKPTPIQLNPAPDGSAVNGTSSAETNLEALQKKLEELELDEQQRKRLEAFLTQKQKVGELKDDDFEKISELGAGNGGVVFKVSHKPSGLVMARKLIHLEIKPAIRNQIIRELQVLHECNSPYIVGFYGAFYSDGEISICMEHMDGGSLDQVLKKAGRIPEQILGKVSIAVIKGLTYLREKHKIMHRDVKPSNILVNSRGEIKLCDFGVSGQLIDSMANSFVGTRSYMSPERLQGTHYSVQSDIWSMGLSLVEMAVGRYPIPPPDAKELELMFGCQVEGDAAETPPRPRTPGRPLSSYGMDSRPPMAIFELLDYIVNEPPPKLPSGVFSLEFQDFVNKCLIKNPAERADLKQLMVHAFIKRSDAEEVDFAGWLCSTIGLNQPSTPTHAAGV
Chain of Protein kinase C iota type (Homo sapiens) (P41743 whole entry): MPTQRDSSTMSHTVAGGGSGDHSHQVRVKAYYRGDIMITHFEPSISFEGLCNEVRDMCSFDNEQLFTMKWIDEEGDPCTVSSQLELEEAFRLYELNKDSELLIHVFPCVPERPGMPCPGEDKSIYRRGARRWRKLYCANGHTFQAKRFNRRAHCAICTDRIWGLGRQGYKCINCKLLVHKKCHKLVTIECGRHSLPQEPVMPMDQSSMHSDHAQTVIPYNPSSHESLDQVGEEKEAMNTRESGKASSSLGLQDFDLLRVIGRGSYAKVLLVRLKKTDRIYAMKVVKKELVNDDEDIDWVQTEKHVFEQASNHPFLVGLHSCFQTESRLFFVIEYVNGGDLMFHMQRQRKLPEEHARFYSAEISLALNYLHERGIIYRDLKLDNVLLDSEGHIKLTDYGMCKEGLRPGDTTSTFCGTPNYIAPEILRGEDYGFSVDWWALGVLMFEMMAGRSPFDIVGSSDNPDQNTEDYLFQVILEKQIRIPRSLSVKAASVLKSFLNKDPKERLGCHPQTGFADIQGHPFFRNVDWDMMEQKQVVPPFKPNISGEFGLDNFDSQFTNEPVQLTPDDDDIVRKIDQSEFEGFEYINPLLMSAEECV
Chain of Ribosomal protein S6 kinase alpha-4 (Homo sapiens) (O75676 whole entry, looked up): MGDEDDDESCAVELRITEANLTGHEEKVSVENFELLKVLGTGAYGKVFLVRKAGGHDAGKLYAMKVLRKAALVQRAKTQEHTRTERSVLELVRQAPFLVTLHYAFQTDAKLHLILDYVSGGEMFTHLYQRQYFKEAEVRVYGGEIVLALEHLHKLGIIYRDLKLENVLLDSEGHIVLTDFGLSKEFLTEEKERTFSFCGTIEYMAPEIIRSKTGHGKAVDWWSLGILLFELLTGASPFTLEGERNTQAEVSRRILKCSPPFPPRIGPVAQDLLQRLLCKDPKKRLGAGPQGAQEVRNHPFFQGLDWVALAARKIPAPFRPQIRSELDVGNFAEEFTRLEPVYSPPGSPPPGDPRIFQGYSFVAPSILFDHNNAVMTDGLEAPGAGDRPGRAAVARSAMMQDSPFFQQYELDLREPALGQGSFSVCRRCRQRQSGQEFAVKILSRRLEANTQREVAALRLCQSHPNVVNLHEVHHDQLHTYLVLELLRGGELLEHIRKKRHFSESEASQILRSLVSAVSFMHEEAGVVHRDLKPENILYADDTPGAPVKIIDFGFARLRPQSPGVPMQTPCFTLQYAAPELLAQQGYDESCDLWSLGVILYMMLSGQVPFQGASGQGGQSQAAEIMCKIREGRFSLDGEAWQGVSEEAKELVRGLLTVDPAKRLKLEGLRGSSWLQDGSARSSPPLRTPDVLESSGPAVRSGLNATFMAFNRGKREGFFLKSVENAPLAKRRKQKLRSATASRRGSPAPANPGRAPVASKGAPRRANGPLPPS
Chain of Serine/threonine-protein kinase Nek7 (Homo sapiens) (Q8TDX7 whole entry, looked up): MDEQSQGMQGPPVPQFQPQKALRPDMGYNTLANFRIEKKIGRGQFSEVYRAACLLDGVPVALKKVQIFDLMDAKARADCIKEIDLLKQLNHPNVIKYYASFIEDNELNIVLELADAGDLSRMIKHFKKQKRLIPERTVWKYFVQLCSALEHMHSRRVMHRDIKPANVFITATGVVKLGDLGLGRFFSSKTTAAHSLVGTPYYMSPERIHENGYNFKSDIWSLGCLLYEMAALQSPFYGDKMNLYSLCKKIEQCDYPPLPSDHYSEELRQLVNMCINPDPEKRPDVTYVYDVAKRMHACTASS

## OCCOCc1cn(CCNc2nonc2/C(=N/O)Nc2ccc(F)c(Br)c2)nn1
[1]
  inhibition: inactive
[2]
  inhibition: inactive
[3]
  inhibition: inactive
[4]
  inhibition: inactive
[5]
  inhibition: inactive
[6]
  inhibition: inactive
[7]
  inhibition: inactive
[8]
  inhibition: inactive
Mus musculus
  Activity: Non-Toxic
[9]
  inhibition: inactive
[10]
  IC50: 0.144 µM
[11]
  fraction unbound: 0.0968
[12]
  inhibition: inactive
[13]
  inhibition: inactive
[14]
  inhibition: inactive
[15]
  inhibition: inactive
[16]
  inhibition: inactive
HCT-116 [17]
  Activity: 4.54%
[18]
  recovery: 91.1%
[19]
  inhibition: inactive
[20]
  inhibition: inactive
[21]
  inhibition: inactive
[22]
  inhibition: inactive
[23]
  inhibition: inactive
HCT-116 [24]
  IC50: 56.1 µM
[25]
  inhibition: inactive
[26]
  inhibition: inactive
[27]
  inhibition: inactive
HCT-116 [28]
  Activity: 88.1%
[29]
  inhibition: inactive
[30]
  inhibition: inactive
[31]
  inhibition: inactive
[32]
  inhibition: inactive
[33]
  inhibition: inactive
[34]
  inhibition: inactive
[35]
  inhibition: inactive
[36]
  inhibition: inactive
[37]
  inhibition: inactive
[38]
  fraction unbound: 0.0411
